Assay results taken from patent publication US11266643B2, “Triaryl compounds for treatment of PD-L1 diseases” (CHEMOCENTRYX, INC., priority 2019, dated 2022).

Molecular target: human PD-L1 (Homo sapiens (Human), UniProt Q9NZQ7)
Assay: Enzyme-Linked Immunosorbent Assay (ELISA), PD-1/PD-L1 binding
Settings: plate-coated human PD-L1, biotinylated Human PD-1, absorbance at 450 nm
Outline: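 Plates coated with […] human PD-L1 overnight at 4° C, blocked, then 1:5 serial compound dilutions added with human PD-1 […] 0.31 μg/mL for 1 h at 37° C. Bound PD-1 detected with streptavidin-HRP and TMB (20 min, 37° C); absorbance read at 450 nm after H2SO4 stop.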

Sequence of human PD-L1 (Q9NZQ7 19-239): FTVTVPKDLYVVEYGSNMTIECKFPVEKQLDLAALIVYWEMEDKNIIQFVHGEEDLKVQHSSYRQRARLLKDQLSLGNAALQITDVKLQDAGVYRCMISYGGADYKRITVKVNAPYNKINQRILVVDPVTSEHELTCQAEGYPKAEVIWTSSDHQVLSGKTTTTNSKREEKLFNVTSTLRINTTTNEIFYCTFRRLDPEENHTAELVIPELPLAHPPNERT

Compound	IC50 [nM]
CCOc1cc(-c2cccc(-c3cccc(NC(=O)c4cn(C)c(=O)n(C)c4=O)c3C)c2Cl)ccc1CN[C@@H]1CCOC[C@@H]1O [Example 2.048]	< 10
COc1cc(-c2cccc(-c3cccc(NC(=O)c4cn(C)c(=O)n(C)c4=O)c3C)c2Cl)cnc1CN[C@@H]1CCOC[C@@H]1O [Example 2.049]	< 10
COc1cc(-c2cccc(-c3cccc(NC(=O)c4cn(C)c(=O)n(C)c4=O)c3C)c2Cl)cc(F)c1CNC1(C)CCOCC1 [Example 2.050]	< 10
COc1cc(-c2cccc(-c3cccc(NC(=O)c4cn(C)c(=O)n(C)c4=O)c3C)c2Cl)cc(F)c1CN[C@@H]1CCC[C@@H]1O [Example 2.051]	< 10
COc1cc(-c2cccc(-c3cccc(NC(=O)c4cn(C)c(=O)n(C)c4=O)c3C)c2Cl)cc(F)c1CN[C@@H]1CCC[C@H]1O [Example 2.052]	< 10
COc1cc(-c2cccc(-c3cccc(NC(=O)c4cn(C)c(=O)n(C)c4=O)c3C)c2Cl)cc(F)c1CN[C@H]1CCC[C@H]1O [Example 2.053]	< 10
COc1cc(-c2cccc(-c3cccc(NC(=O)c4cn(C)c(=O)n(C)c4=O)c3C)c2Cl)ccc1CN[C@@H]1CCOC[C@@H]1O [Example 2.054]	< 10
COc1cc(-c2cccc(-c3cccc(NC(=O)c4cn(C)c(=O)n(C)c4=O)c3Cl)c2Cl)cc(F)c1CN(C)[C@H]1CNC(=O)C1 [Example 2.055]	10 to 1000
COc1cc(-c2cccc(-c3cccc(NC(=O)c4cn(C)c(=O)n(C)c4=O)c3C)c2Cl)cc(F)c1CNCC1(O)CC1 [Example 2.056]	< 10
COc1cc(-c2cccc(-c3cccc(NC(=O)c4cn(C)c(=O)n(C)c4=O)c3C)c2Cl)cc(F)c1CNC(C)(C)CO [Example 2.057]	< 10
COc1cc(-c2cccc(-c3cccc(NC(=O)c4cn(C)c(=O)n(C)c4=O)c3C)c2Cl)cc(F)c1CN(C)CCO [Example 2.058]	< 10
COc1cc(-c2cccc(-c3cccc(NC(=O)c4cn(C)c(=O)n(C)c4=O)c3C)c2Cl)cc(F)c1CNCC1(C(N)=O)CC1 [Example 2.059]	< 10
COc1cc(-c2cccc(-c3cccc(NC(=O)c4cn(C)c(=O)n(C)c4=O)c3C)c2Cl)cc(F)c1CN[C@H]1CCC[C@@H]1O [Example 2.060]	< 10
COc1cc(-c2cccc(-c3cccc(NC(=O)c4cn(C)c(=O)n(C)c4=O)c3C)c2Cl)cc(F)c1CN(C)[C@H]1CNC(=O)C1 [Example 2.061]	10 to 1000
COc1cc(-c2cccc(-c3cccc(NC(=O)c4cn(C)c(=O)n(C)c4=O)c3C)c2Cl)cc(F)c1CN(C)[C@@H]1CCOC[C@@H]1O [Example 2.062]	< 10
COc1cc(-c2cccc(-c3cccc(NC(=O)c4cn(C)c(=O)n(C)c4=O)c3Cl)c2Cl)cc(F)c1CNC(C)C [Example 2.063]	< 10
COc1cc(-c2cccc(-c3cccc(NC(=O)c4cn(C)c(=O)n(C)c4=O)c3C)c2Cl)cc(F)c1CNC(C)C [Example 2.064]	< 10
COc1cc(-c2cccc(-c3cccc(NC(=O)c4cn(C)c(=O)n(C)c4=O)c3Cl)c2Cl)cc(F)c1CN[C@@H]1CCOC1 [Example 2.065]	< 10
COc1cc(-c2cccc(-c3cccc(NC(=O)c4cn(C)c(=O)n(C)c4=O)c3Cl)c2Cl)cc(F)c1CN[C@H]1CCOC1 [Example 2.066]	< 10

Compound	IC50 [nM]
COc1cc(-c2cccc(-c3cccc(NC(=O)c4cn(C)c(=O)n(C)c4=O)c3C)c2Cl)cc(F)c1CN[C@@H]1CCCOC1 [Example 2.067]	< 10
COc1cc(-c2cccc(-c3cccc(NC(=O)c4cn(C)c(=O)n(C)c4=O)c3Cl)c2Cl)cc(F)c1CN(C)[C@@H]1CNC(=O)C1 [Example 2.068]	< 10
COc1cc(-c2cccc(-c3cccc(NC(=O)c4cn(C)c(=O)n(C)c4=O)c3C)c2Cl)cc(F)c1CN(C)C1CCOCC1 [Example 2.069]	< 10
COc1cc(-c2cccc(-c3cccc(NC(=O)c4cn(C)c(=O)n(C)c4=O)c3Cl)c2Cl)cc(F)c1CN[C@@H]1COCC[C@H]1O [Example 2.070]	< 10
COc1cc(-c2cccc(-c3cccc(NC(=O)c4cn(C)c(=O)n(C)c4=O)c3Cl)c2Cl)cc(F)c1CN[C@H]1COCC[C@@H]1O [Example 2.071]	< 10
COc1cc(-c2cccc(-c3cccc(NC(=O)c4cn(C)c(=O)n(C)c4=O)c3C)c2Cl)cc(F)c1CN(C)[C@@H]1CNC(=O)C1 [Example 2.072]	< 10
COc1cc(-c2cccc(-c3cccc(NC(=O)c4cn(C)c(=O)n(C)c4=O)c3Cl)c2Cl)cc(F)c1CN[C@@H]1COC[C@@H]1O [Example 2.073]	< 10
COc1cc(-c2cccc(-c3cccc(NC(=O)c4cn(C)c(=O)n(C)c4=O)c3Cl)c2Cl)cc(F)c1CN[C@H]1COC[C@H]1O [Example 2.074]	< 10
COc1cc(-c2cccc(-c3cccc(NC(=O)c4cn(C)c(=O)n(C)c4=O)c3Cl)c2Cl)cc(F)c1CN[C@@H]1COC[C@H]1O [Example 2.075]	< 10
COc1cc(-c2cccc(-c3cccc(NC(=O)c4cn(C)c(=O)n(C)c4=O)c3Cl)c2Cl)cc(F)c1CN[C@H]1COC[C@@H]1O [Example 2.076]	< 10
COc1cc(-c2cccc(-c3cccc(NC(=O)c4cn(C)c(=O)n(C)c4=O)c3Cl)c2C)cc(F)c1CN[C@H]1CCOC[C@@H]1O [Example 2.077]	< 10
COc1cc(-c2cccc(-c3cccc(NC(=O)c4cn(C)c(=O)n(C)c4=O)c3Cl)c2C)cc(F)c1CN[C@@H]1CCOC[C@H]1O [Example 2.078]	< 10
COc1cc(-c2cccc(-c3cccc(NC(=O)c4cn(C)c(=O)n(C)c4=O)c3Cl)c2F)cc(F)c1CNC[C@@H]1CCC(=O)N1 [Example 2.079]	< 10
COc1cc(-c2cccc(-c3cccc(NC(=O)c4cn(C)c(=O)n(C)c4=O)c3C)c2Cl)cc(F)c1CN[C@H]1CCCOC1 [Example 2.080]	< 10
COc1cc(-c2cccc(-c3cccc(NC(=O)c4cn(C)c(=O)n(C)c4=O)c3Cl)c2Cl)cc(F)c1CN[C@H]1CNC(=O)C1 [Example 2.081]	< 10
COc1cc(-c2cccc(-c3cccc(NC(=O)c4cn(C)c(=O)n(C)c4=O)c3Cl)c2Cl)cc(F)c1CN[C@H]1CCOC[C@@H]1O [Example 2.082]	< 10
COc1cc(-c2cccc(-c3cccc(NC(=O)c4cn(C)c(=O)n(C)c4=O)c3C)c2Cl)cc(F)c1CNC1CCOCC1 [Example 2.083]	< 10
COc1cc(-c2cccc(-c3cccc(NC(=O)c4cn(C)c(=O)n(C)c4=O)c3C)c2Cl)cc(F)c1CN[C@H]1CNC(=O)C1 [Example 2.084]	< 10
COc1cc(-c2cccc(-c3cccc(NC(=O)c4cn(C)c(=O)n(C)c4=O)c3C)c2Cl)cc(F)c1CNC(C)(C)C(N)=O [Example 2.085]	10 to 1000

Compound	IC50 [nM]
COc1cc(-c2cccc(-c3cccc(NC(=O)c4cn(C)c(=O)n(C)c4=O)c3C)c2Cl)cc(F)c1CN[C@@H]1COCC[C@H]1O [Example 2.086]	< 10
COc1cc(-c2cccc(-c3cccc(NC(=O)c4cn(C)c(=O)n(C)c4=O)c3C)c2Cl)cc(F)c1CN[C@H]1CCOC1 [Example 2.087]	< 10
COc1cc(-c2cccc(-c3cccc(NC(=O)c4cn(C)c(=O)n(C)c4=O)c3C)c2Cl)cc(F)c1CN[C@H]1COCC[C@@H]1O [Example 2.088]	< 10
COc1cc(-c2cccc(-c3cccc(NC(=O)c4cn(C)c(=O)n(C)c4=O)c3C)c2Cl)cc(F)c1CN[C@H]1CCOC[C@@H]1O [Example 2.089]	< 10
COc1cc(-c2cccc(-c3cccc(NC(=O)c4cn(C)c(=O)n(C)c4=O)c3C)c2Cl)cc(F)c1CN[C@@H]1COC[C@H]1O [Example 2.090]	< 10
COc1cc(-c2cccc(-c3cccc(NC(=O)c4cn(C)c(=O)n(C)c4=O)c3Cl)c2F)cc(F)c1CN[C@@H]1CCOC[C@@H]1O [Example 2.091]	< 10
COc1cc(-c2cccc(-c3cccc(NC(=O)c4cn(C)c(=O)n(C)c4=O)c3C)c2Cl)cc(F)c1CN[C@H]1COC[C@@H]1O [Example 2.092]	< 10
COc1cc(-c2cccc(-c3cccc(NC(=O)c4cn(C)c(=O)n(C)c4=O)c3C)c2Cl)cc(F)c1CN[C@H]1COC[C@H]1O [Example 2.093]	< 10
COc1cc(-c2cccc(-c3cccc(NC(=O)c4cn(C)c(=O)n(C)c4=O)c3C)c2Cl)cc(F)c1CN[C@@H]1COC[C@@H]1O [Example 2.094]	< 10
COc1cc(-c2cccc(-c3cccc(NC(=O)c4cn(C)c(=O)n(C)c4=O)c3C)c2F)cc(F)c1CN[C@H]1CCOC[C@@H]1O [Example 2.095]	< 10
COc1cc(-c2cccc(-c3cccc(NC(=O)c4cn(C)c(=O)n(C)c4=O)c3C)c2C)cc(F)c1CN[C@H]1CCOC[C@@H]1O [Example 2.096]	< 10
COc1cc(-c2cccc(-c3cccc(NC(=O)c4cn(C)c(=O)n(C)c4=O)c3C)c2C)cc(F)c1CN[C@H]1CCOC[C@H]1O [Example 2.097]	< 10
COc1cc(-c2cccc(-c3cccc(NC(=O)c4cn(C)c(=O)n(C)c4=O)c3C)c2Cl)cc(F)c1CN[C@@H]1CCOC1 [Example 2.098]	< 10
COc1cc(-c2cccc(-c3cccc(NC(=O)c4cn(C)c(=O)n(C)c4=O)c3C)c2F)cc(F)c1CN[C@@H]1CCOC[C@H]1O [Example 2.099]	< 10
COc1cc(-c2cccc(-c3cccc(NC(=O)c4cn(C)c(=O)n(C)c4=O)c3Cl)c2C)cc(F)c1CN(C)C[C@@H]1CCC(=O)N1 [Example 2.100]	< 10
COc1cc(-c2cccc(-c3cccc(NC(=O)c4cn(C)c(=O)n(C)c4=O)c3C)c2Cl)cc(F)c1CN[C@@H]1CCC(=O)NC1 [Example 2.101]	< 10
COc1cc(-c2cccc(-c3cccc(NC(=O)c4cn(C)c(=O)n(C)c4=O)c3C)c2Cl)cc(F)c1CN[C@@H]1CCOC[C@H]1O [Example 2.102]	< 10
COc1cc(-c2cccc(-c3cccc(NC(=O)c4cn(C)c(=O)n(C)c4=O)c3Cl)c2C)cc(F)c1CN[C@H]1CCOC[C@H]1O [Example 2.103]	< 10
COc1cc(-c2cccc(-c3cccc(NC(=O)c4cn(C)c(=O)n(C)c4=O)c3C)c2Cl)cc(F)c1CN[C@H]1CCOC[C@H]1O [Example 2.104]	< 10
